In US20110213021A1, “COMPOSITIONS AND METHODS FOR TREATING NOS-ASSOCIATED DISEASES” (Indigene Pharmaceuticals, Inc., priority 2008, published 2011):

Experiments:
[1] = tested on: rat liver microsomes; assay: lipid peroxidation: ascorbic acid-induced production of malonaldehyde in liver microsomes; format: biochemical; settings: 0.1 mM ascorbic acid, 20 min at 37° C.
Method: Furthermore, the effect on lipid peroxidation quantified by the measurement of ascorbic acid-induced production of malonaldehyde in rat liver microsomes. Specifically, homogenates of liver microsomes (150 μg) are pre-incubated for 5 min at 37° C. with the test salt (as a 10-fold concentrated solution in H2O), reference compound or water (control) in a buffer containing 300 mM NaCl, 0.1 mM FeCl3 and 8 mM NaH2PO4/Na2HPO4 (pH 7.4). Thereafter, the reaction is initiated by the addition of 0.1 mM ascorbic acid and the mixture is incubated for 20 min at 37° C. For basal control measurements, ascorbic acid is omitted from the incubation medium. These measurements are also used to detect any compound interference with the photometric detection at the selected wavelength. Following incubation, the reaction is stopped by the addition of 5 mM EDTA/NaOH. […] The amount of lipid peroxides present in the supernatant is quantified by measuring the absorbance at λ=532 nm using a spectrophotometer. This assay may be performed using the standard inhibitory reference compound N-propyl gallate, which may be tested in each experiment at several concentrations to obtain an inhibition curve from which its IC50 value is calculated. […]

[2] = tested on: human HL-60 cells; assay: superoxide O2- secretion from PMA-stimulated HL-60 cells (cytochrome C reduction); format: cell-based; settings: 0.25 h, 30 nM PMA-stimulated HL-60 cells, 15 min at 37° C.
Method: In addition, the effect on superoxide O2 secretion was measured. This assay quantifies the secretion of superoxide O2^− from phorbol 12-mysirate 13-acetate (PMA)-stimulated human HL-60 cells, by the measurement of cytochrome C reduction. The test salt (as a 10-fold concentrated solution in H2O), reference compound or water (control) are pre-incubated for 15 min at 37° C. with HL-60 cells (5×10^5 cells) suspended in a buffer containing 137 mM NaCl, 2.68 mM KCl, 0.9 mM CaCl2, 0.5 mM MgCl2, 8.1 mM Na2HPO4, 1.47 mM KH2PO4 (pH 7.4 ) and 19 μM cytochrome C. The absorbance is then measured at λ=550 nm using a spectrophotometer to detect any compound interference with the photometric detection at this wavelength. Thereafter, the reaction is initiated by the addition of 30 nM PMA and the mixture is incubated for 15 min at 37° C. in the dark. For basal control measurements, the incubation medium also contains 275 U/ml superoxyde dismutase (SOD) to catalyze the destruction of superoxide O2^−. […] The absorbance is then measured at λ=550 nm and the activity is determined by subtracting signal measured in the presence of SOD from that measured in its absence. This assay may be performed using the standard inhibitory reference compound, diphenyleneiodonium, which may be tested in each experiment at several concentrations to obtain an inhibition curve from which its IC50 value is calculated. […]

[3] = target: T1, inducible NOS (Mus musculus, UniProt P29477); assay: inducible NOS activity assay (formation of nitrite from arginine, Griess reagent); format: biochemical
T1 construct: using an enzyme isolated from LPS-+INFγ-treated mouse macrophages; endogenous in cells; host or cells: LPS + IFN-gamma-treated mouse macrophages (enzyme isolated from the cells)
Method: First, an inducible NOS activity assay was performed on the recrystallized salt of Example 2. This assay measures the formation of nitrite from arginine using an enzyme isolated from LPS-+INFγ-treated mouse macrophages. In this assay, the test salt (as a 10-fold concentrated solution in H2O), reference compound or water (control) are incubated for 180 min at 37° C. with the enzyme (0.5 U) in a buffer containing 40 mM Tris-HCl (pH 8.0), 0.5 mM NADPH, 4 μM FAD, 12 μM BH4, 3 mM DTT and 0.1 mM L-arginine. For basal control measurements, the enzyme is omitted from the incubation medium. Following incubation, Griess reagent containing 0.05% naphtylene diamine, 0.5% sulfanilamide and 2.5% orthophosphoric acid is added and the samples are incubated for 10 min at 22° C. The amount of nitrite produced is then quantified with a microplate reader (Spectrafluorplus, Tecan) by measuring the absorbance at λ=550 nm. The results are expressed as IC50 in M. This assay may be performed using the standard inhibitory reference compound, I400 W, which may be tested in each experiment at several concentrations to obtain an inhibition curve from which its IC50 value is calculated. Further information regarding this protocol may be found in Tayeh and Marletta (1989), Macrophage oxidation of L-arginine to nitric oxide, nitrite, and nitrate, J. Biol. Chem., 264: 19654.

Q: Which results are given for `CC(C)=NN=C(N)N`?
A: IC50 [1]: 1.8 mM; IC50 [2]: 310 µM; IC50 ([3]; enzyme isolated from LPS-+INFγ-treated mouse macrophages, 180 min at 37° C., 0.1 mM L-arginine): 37 µM; nH, inducible NOS activity ([3]; same inhibition curve as the IC50): 0.9
